One may read the AUC(0-inf) as total exposure, with the tail of the curve extrapolated. The low end stands for low exposure, the high end for high exposure. One may read the AUC(0-t) as the area under the concentration-time curve up to a stated or last time point. A high value points to high exposure. For orientation: Cmax means the highest concentration seen after dosing. A word on the half-life: it is the time in which the quantity being followed falls by half. Higher therefore signals slow loss. In general, IC50 refers to the concentration at which inhibition is half-maximal. The low end stands for greater potency in that assay, the high end for weaker potency in that assay.

The values that follow come from patent publication US20240051958A1, “DIACYLGLYCEROL KINASE (DGK) ALPHA INHIBITORS AND USES THEREOF” (priority 2022, published 2024).

SMILES strings stand for the structures.

Series [1] can be described thus: Pharmacokinetic Profile Evaluation (mouse PK). Conditions: CD-1, plasma, oral administration at 5 mg/kg. The format is in vivo, CD-1 mice. Here is the method: Species and strain: CD-1 mice of SPF. Source: Sino-British SIPPR/BK Lab Animal Ltd, Shanghai. 3 mice were intravenously administrated with given compounds (Formulation: 5% DMSO+10% Solutol+85% Saline) or orally gavage administrated with given compounds (Formulation: 5% DMSO+10% Solutol+85% Saline). The blood samples were taken via cephalic vein at timepoints 0.083 h, 0.25 h, 0.5 h, 1 h, 2 h, 4 h, 8 h and 24 h after intravenous administration or at timepoints 0.25 h, 0.5 h, 1 h, 2 h, 4 h, 6 h, 8 h and 24 h after oral gavage administration, 30 μL/time point. Blood samples were placed in tubes containing K2-EDTA and stored on ice until centrifuged. The blood samples were centrifuged at 6800 g for 6 minutes at 2-8° C. within 1 h after collected and stored frozen at approximately −80° C. An aliquot of 10 μL plasma samples were protein precipitated with 200 μL MeOH in which contains 10 ng/mL Verapamil (IS). The mixture was vortexed for 1 min and centrifuged at 18000 g for 7 min. Transfer 180 μL supernatant to 96 well plates. An aliquot of 6 μL supernatant was injected for LC-MS/MS analysis by LC-MS/MS-04 (API4000) instrument. The analytical results were confirmed using quality control samples for intra-assay variation. The accuracy of >66.7% of the quality control samples should be between 80-120% of the known value(s). Standard set of parameters including Area Under the Curve (AUC(0-t) and AUC(0-∞)), elimination half-live (T1/2), maximum plasma concentration (Cmax), will be calculated using noncompartmental analysis modules in FDA certified pharmacokinetic program Phoenix WinNonlin 7.0 (Pharsight, USA).

The next series addresses DGKA (Homo sapiens (Human), UniProt P23743). As to the kind of experiment: DGKA Inhibition ADP-Glo Assay. The format is biochemical. As to conditions: 40 μM ATP, 200 μM DLG in substrate working solution, 25° C., 60 min. Here is the method: The DGKA inhibition reactions were performed using ADP-Glo assay. The reactions were carried out in 50 mM HEPES, 100 mM NaCl, 10 mM MgCl2, 1 mM CaCl2, 0.005% TritonX-100 and 1 mM DTT as working solution (pH=7.5). 30 nL DMSO solution of each test compound (Top concentration 0.4 μM with 10 point, 4-fold dilution series for each compound) were transferred to 384 well plate by Echo and 5 μL DGKA (SignalChem, D21-10BG) enzyme working solution at 2×final reaction concentration was added to each well. After incubated at 25° C. for 15 minutes, 5 μL substrate working solution contain 40 μM ATP (Promega, V915B) and 200 μM DLG (SignalChem, D430-59) were added to initiate reaction. After enzymatic reaction at 25° C. for 60 min, ADP Glo assay reagents (Promega, V9102) were added and luminescence was recorded using an EnVision following the instruction of manual. […] The IC50 value was calculated via a regression analysis of the inhibition rate.
Background: ADP-Glo first removes unused ATP, then detects ADP through luciferase.

A further series concerns Human Pan T cells. As to the kind of experiment: IL-2 Release Detection Assay. The format is cell-based. As to conditions: for Activation fold: Top activation/DMSO control; for Activation % at 100 nM: fitted curve at 100 nM/DMSO control*100%. Here is the method: Add dilutions of compounds into the cells and incubate at 37° C. &5% CO2 for 24 hours. IL-2 in cell supernatant was detected by ELISA Kit (R&D, DY202). […] Top and Bottom: Plateaus in same units as Y. LogEC50: same log units as X. Activation fold: Top activation/DMSO control. Activation % at 100 nM: Activation of non-linear regression equation curve at the concentration of 100 nM/DMSO control*100%.

Sequence of DGKA (P23743 whole entry): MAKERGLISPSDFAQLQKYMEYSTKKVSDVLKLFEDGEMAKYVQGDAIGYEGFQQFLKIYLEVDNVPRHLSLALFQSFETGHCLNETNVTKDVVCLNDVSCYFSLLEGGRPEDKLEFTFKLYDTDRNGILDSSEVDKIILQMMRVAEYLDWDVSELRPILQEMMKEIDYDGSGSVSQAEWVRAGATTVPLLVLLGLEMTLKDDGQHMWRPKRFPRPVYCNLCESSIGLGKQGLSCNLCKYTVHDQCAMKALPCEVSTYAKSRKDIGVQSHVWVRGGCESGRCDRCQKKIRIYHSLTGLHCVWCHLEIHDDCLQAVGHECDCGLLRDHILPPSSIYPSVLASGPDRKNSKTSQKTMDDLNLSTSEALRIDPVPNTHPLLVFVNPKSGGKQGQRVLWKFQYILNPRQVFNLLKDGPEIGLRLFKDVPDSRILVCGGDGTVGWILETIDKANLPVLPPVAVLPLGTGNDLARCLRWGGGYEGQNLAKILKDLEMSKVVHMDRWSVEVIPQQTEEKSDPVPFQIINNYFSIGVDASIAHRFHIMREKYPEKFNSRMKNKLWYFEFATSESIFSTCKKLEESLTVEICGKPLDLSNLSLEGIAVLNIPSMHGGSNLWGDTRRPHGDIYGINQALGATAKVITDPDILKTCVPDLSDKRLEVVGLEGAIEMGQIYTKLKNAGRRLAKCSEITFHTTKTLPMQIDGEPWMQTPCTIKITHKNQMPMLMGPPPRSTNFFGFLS

In series [1], `Cc1ccc2oc(C3CCN(c4cc(=O)n(C)c5ccc(C#N)nc45)CC3)nc2c1` [Example 1, 5-methyl-8-(4-(5-methylbenzo[d]oxazol-2-yl)piperidin-1-yl)-6-oxo-5,6-dihydro-1,5-naphthyridine-2-carbonitrile] showed an AUC(0-inf) of 6150 ng·h/mL, an AUC(0-t) of 5980 ng·h/mL, a peak concentration (Cmax) of 1880 ng/mL and a half-life of 1.46 h. Further, half-maximal inhibition against DGKA (IC50) required 1.99 nM. Besides, in the series with Human Pan T cells, the Activation fold worked out at 17.7 and the “Activation % at 100 nM” value came to 416%.

Regarding `Cn1c(=O)cc(N2CCC(c3nc4cc(F)ccc4o3)CC2)c2nc(C#N)ccc21` [Example 12, 8-(4-(5-fluorobenzo[d]oxazol-2-yl)piperidin-1-yl)-5-methyl-6-oxo-5,6-dihydro-1,5-naphthyridine-2-carbonitrile], in series [1], the AUC(0-inf) is 5940 ng·h/mL, the AUC(0-t) was 5460 ng·h/mL, the peak level (Cmax) was 1100 ng/mL and the half-life is 3.56 h. Half-maximal inhibition on DGKA (IC50) required 1.35 nM. For the same molecule, in the series with Human Pan T cells, the Activation fold was found to be 8.5 and the “Activation % at 100 nM” value is recorded as 340%.

In series [1], `Cc1ccc2oc(C3CCN(c4cc(=O)n(C)c5cc(OCCO)c(C#N)nc45)CC3)nc2c1` [Example 23, 3-(2-hydroxyethoxy)-5-methyl-8-(4-(5-methylbenzo[d]oxazol-2-yl)piperidin-1-yl)-6-oxo-5,6-dihydro-1,5-naphthyridine-2-carbonitrile] showed an AUC(0-inf) of 12100 ng·h/mL, an AUC(0-t) of 12000 ng·h/mL, a Cmax of 1820 ng/mL and a half-life of 3.51 h. The molecule further had an IC50 on DGKA of 0.27 nM. In addition, in the series with Human Pan T cells, the Activation fold is 24.5 and the “Activation % at 100 nM” value is on record as 931%.

Take `Cc1ccc2oc(C3CCN(c4cc(=O)n(C)c5cc(O[C@@H]6CCOC6)c(C#N)nc45)CC3)nc2c1` [Example 28, (R)-5-methyl-8-(4-(5-methylbenzo[d]oxazol-2-yl)piperidin-1-yl)-6-oxo-3-((tetrahydrofuran-3-yl)oxy)-5,6-dihydro-1,5-naphthyridine-2-carbonitrile]: in series [1], the AUC(0-inf) amounted to 3460 ng·h/mL, the AUC(0-t) stood at 3410 ng·h/mL, the Cmax is 677 ng/mL and the half-life is 2.67 h. The molecule further had an IC50 on DGKA of 0.14 nM.

`Cc1ccc2oc(C3CCN(c4cc(=O)n(C)c5cc(O[C@H]6CCOC6)c(C#N)nc45)CC3)nc2c1` [Example 29, (S)-5-methyl-8-(4-(5-methylbenzo[d]oxazol-2-yl)piperidin-1-yl)-6-oxo-3-((tetrahydrofuran-3-yl)oxy)-5,6-dihydro-1,5-naphthyridine-2-carbonitrile] returned an IC50 on DGKA of 0.7 nM. Also, in the series with Human Pan T cells, the Activation fold is reported as 8.5 and the “Activation % at 100 nM” value is listed as 292%.

With `Cc1ccc2oc(N3CC=C(c4cc(=O)n(C)c5cc(OCCO)c(C#N)nc45)CC3)nc2c1` [Example 30, 3-(2-hydroxyethoxy)-5-methyl-8-(1-(5-methylbenzo[d]oxazol-2-yl)-1,2,3,6-tetrahydropyridin-4-yl)-6-oxo-5,6-dihydro-1,5-naphthyridine-2-carbonitrile], on DGKA, the 50% inhibitory concentration (IC50) worked out at 0.65 nM. In addition, in the series on Human Pan T cells, the Activation fold came to 11.0 and the “Activation % at 100 nM” value was found to be 244%.
